One experiment has as its target T1, GRK2 (Homo sapiens, UniProt P25098).
T1 construct: purchased Thermo Scientific
T1 sequence (P25098 1-689): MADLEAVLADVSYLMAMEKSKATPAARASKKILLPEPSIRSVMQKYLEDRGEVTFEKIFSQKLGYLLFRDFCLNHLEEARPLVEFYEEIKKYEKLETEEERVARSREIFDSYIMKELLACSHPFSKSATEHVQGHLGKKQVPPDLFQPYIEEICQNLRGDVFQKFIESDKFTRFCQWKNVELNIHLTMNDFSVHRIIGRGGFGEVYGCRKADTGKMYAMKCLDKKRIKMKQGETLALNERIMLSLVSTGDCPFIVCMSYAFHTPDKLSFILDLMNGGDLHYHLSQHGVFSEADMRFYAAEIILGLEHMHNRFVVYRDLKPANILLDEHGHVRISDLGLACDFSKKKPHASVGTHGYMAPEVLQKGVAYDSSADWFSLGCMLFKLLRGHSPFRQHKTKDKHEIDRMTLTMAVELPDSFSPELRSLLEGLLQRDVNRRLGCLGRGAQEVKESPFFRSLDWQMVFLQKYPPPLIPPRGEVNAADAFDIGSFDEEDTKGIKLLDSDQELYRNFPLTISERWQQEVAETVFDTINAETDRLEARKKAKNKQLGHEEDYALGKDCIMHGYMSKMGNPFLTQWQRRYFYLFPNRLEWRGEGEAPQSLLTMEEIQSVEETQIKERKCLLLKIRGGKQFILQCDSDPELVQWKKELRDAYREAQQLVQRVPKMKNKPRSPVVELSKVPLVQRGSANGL
The experiment in a line: Lance Kinase Activity Assay, GRK2. Conditions: biochemical Lance kinase activity assay; class symbols A-F; read-out: GRK2 LANCE Assay (IC-50). The essentials:
(§1)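 IC50s from sigmoidal dose-response over 0.0025-10 μM compound, with phosphorylated ULight substrate detected by Eu anti-phospho antibody FRET after EDTA quench.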
On the technique in general: Time-resolved FRET reads energy transfer from a long-lived donor to a nearby acceptor.

Another experiment deals with T2, GRK5 (Homo sapiens, UniProt P34947).
T2 construct: purchased Thermo Scientific
The experiment in a line: Lance Kinase Activity Assay, GRK5. Conditions: biochemical Lance kinase activity assay; class symbols A-F; read-out: GRK5 LANCE Assay (IC-50). The essentials: as §1

The values below come from patent US20240294522A1 (Lead Discovery Center GmbH, priority 2021, published 2024).

Each structure is given as a SMILES string.

T2 sequence (P34947 whole entry): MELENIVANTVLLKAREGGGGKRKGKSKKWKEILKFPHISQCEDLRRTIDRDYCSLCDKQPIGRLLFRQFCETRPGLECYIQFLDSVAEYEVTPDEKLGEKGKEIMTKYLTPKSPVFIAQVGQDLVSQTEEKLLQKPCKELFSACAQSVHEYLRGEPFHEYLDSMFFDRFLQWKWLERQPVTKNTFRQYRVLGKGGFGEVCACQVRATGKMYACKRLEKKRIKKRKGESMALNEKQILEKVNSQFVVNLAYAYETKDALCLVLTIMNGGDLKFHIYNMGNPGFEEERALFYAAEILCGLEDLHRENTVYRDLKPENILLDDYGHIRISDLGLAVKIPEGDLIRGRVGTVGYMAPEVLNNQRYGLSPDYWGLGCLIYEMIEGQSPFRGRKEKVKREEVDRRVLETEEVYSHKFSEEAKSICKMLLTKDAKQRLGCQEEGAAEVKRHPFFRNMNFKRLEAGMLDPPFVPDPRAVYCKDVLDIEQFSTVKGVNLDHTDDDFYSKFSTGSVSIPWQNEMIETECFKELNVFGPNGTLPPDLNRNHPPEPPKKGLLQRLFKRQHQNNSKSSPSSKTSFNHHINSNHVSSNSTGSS

On to `N#C/C(=C\c1c[nH]c2ncccc12)C(=O)NCc1ccc(Cl)cc1` [Example 58, (E)-N-(4-chlorobenzyl)-2-cyano-3-(1H-pyrrolo[2,3-b]pyridin-3-yl)acrylamide], for which the IC50 on GRK2 lay in the range of 1000 to 10000 nM; on GRK5, 100 to 500 nM.
As for `COc1ccc([C@@H](C)NC(=O)/C=C/c2c[nH]c3nccc(-c4ccc(OCCN(C)C)cc4)c23)cc1OC` [Example 230, (R,E)-N-(1-(3,4-dimethoxyphenyl)ethyl)-3-(4-(4-(2-(dimethylamino)ethoxy)phenyl)-1H-pyrrolo[2,3-b]pyridin-3-yl)acrylamide], the IC50 at GRK2 is 1000 to 10000 nM; at GRK5 it was at most 50 nM.
`COc1ccc([C@@H](C)NC(=O)/C=C/c2c[nH]c3ncc(-c4ccc(OCCN(C)C)cc4)cc23)cc1OC` [Example 197, (R,E)-N-(1-(3,4-dimethoxyphenyl)ethyl)-3-(5-(4-(2-(dimethylamino)ethoxy)phenyl)-1H-pyrrolo[2,3-b]pyridin-3-yl)acrylamide]: the IC50 is 500 to 1000 nM at GRK2 and at most 50 nM at GRK5.
On to `N#C/C(=C\c1c[nH]c2ncccc12)C(=O)NCc1cccc(C(N)=O)c1` [Example 28, (E)-3-((2-cyano-3-(1H-pyrrolo[2,3-b]pyridin-3-yl)acrylamido)methyl)benzamide], for which the IC50 at GRK2 lay in the range of 100 to 500 nM; at GRK5, 500 to 1000 nM.
Regarding `COc1ccc([C@@H](C)NC(=O)/C(C#N)=C/c2c[nH]c3nccc(-c4cccc(CN(C)C)c4)c23)cc1OC` [Example 176, (R,E)-2-cyano-N-(1-(3,4-dimethoxyphenyl)ethyl)-3-(4-(3-((dimethylamino)methyl)phenyl)-1H-pyrrolo[2,3-b]pyridin-3-yl)acrylamide], the IC50 is 1000 to 10000 nM at GRK2 and at most 50 nM on GRK5.
With `N#C/C(=C\c1c[nH]c2ncc(Cl)cc12)C(=O)NCc1ccc(F)cc1` [Example 72, (E)-3-(5-chloro-1H-pyrrolo[2,3-b]pyridin-3-yl)-2-cyano-N-(4-fluorobenzyl)acrylamide], the IC50 on GRK2 and at GRK5 was 1000 to 10000 nM in each case.
For the compound `Cc1nn(C)c2cc([C@@H](C)NC(=O)/C(C#N)=C/c3c[nH]c4ncc(-c5cnn(C)c5)cc34)ccc12` [Example 261, (R,E)-2-cyano-N-(1-(1,3-dimethyl-1H-indazol-6-yl)ethyl)-3-(5-(1-methyl-1H-pyrazol-4-yl)-1H-pyrrolo[2,3-b]pyridin-3-yl)acrylamide], the figures for the IC50 at GRK2 and on GRK5 were over 10000 nM and at most 50 nM, respectively.
Regarding `COc1ccc([C@@H](C)NC(=O)/C=C/c2c[nH]c3ncc(-c4cccc(-c5ncc[nH]5)c4)cc23)cc1OC` [Example 199, (R,E)-3-(5-(3-(1H-imidazol-2-yl)phenyl)-1H-pyrrolo[2,3-b]pyridin-3-yl)-N-(1-(3,4-dimethoxyphenyl)ethyl)acrylamide], the IC50 is over 10000 nM at GRK2 and at most 50 nM on GRK5.
`Cc1ccc(Br)cc1CNC(=O)/C(C#N)=C/c1c[nH]c2ncccc12` [Example 23, (E)-N-(5-bromo-2-methylbenzyl)-2-cyano-3-(1H-pyrrolo[2,3-b]pyridin-3-yl)acrylamide]: the IC50 on GRK2 is over 10000 nM; at GRK5, 1000 to 10000 nM.
As to `COc1ccc([C@@H](C)NC(=O)/C(C#N)=C/c2c[nH]c3ncc(-c4cn[nH]c4)cc23)cc1OC` [Example 163], the IC50 on GRK2 was 1000 to 10000 nM; on GRK5 it was at most 50 nM.
Turning to `COc1ccc([C@@H](C)NC(=O)/C=C/c2c[nH]c3ncc(-c4cccc(OCCCN(C)C)c4)cc23)cc1OC` [Example 188], the results for the IC50 on GRK2 and on GRK5 were 500 to 1000 nM and at most 50 nM, respectively.
As to `COc1ccc([C@@H](C)NC(=O)/C(C#N)=C/c2c[nH]c3nccc(-c4ccc(CN5CCN(C)CC5)cc4)c23)cc1OC` [Example 173, (R,E)-2-cyano-N-(1-(3,4-dimethoxyphenyl)ethyl)-3-(4-(4-((4-methylpiperazin-1-yl)methyl)phenyl)-1H-pyrrolo[2,3-b]pyridin-3-yl)acrylamide], the IC50 was 1000 to 10000 nM at GRK2 and at most 50 nM at GRK5.
In the case of `N#C/C(=C\c1c[nH]c2ncccc12)C(=O)NCc1cc(F)cc(F)c1` [Example 67, (E)-2-cyano-N-(3,5-difluorobenzyl)-3-(1H-pyrrolo[2,3-b]pyridin-3-yl)acrylamide], the IC50 on GRK2 and on GRK5 was 500 to 1000 nM throughout.
As for `COc1ccc([C@@H](C)NC(=O)/C=C/c2c[nH]c3ncc(-c4cnn(C)c4C#N)cc23)cc1OC` [Example 211, (R,E)-3-(5-(5-cyano-1-methyl-1H-pyrazol-4-yl)-1H-pyrrolo[2,3-b]pyridin-3-yl)-N-(1-(3,4-dimethoxyphenyl)ethyl)acrylamide], the IC50 is 500 to 1000 nM on GRK2 and at most 50 nM on GRK5.
Turning to `COc1ccc([C@@H](C)NC(=O)/C=C/c2c[nH]c3ncc(-c4cccc(S(=O)(=O)C5CC5)c4)cc23)cc1OC` [Example 216, (R,E)-3-(5-(3-(cyclopropylsulfonyl)phenyl)-1H-pyrrolo[2,3-b]pyridin-3-yl)-N-(1-(3,4-dimethoxyphenyl)ethyl)acrylamide], the IC50 on GRK2 was 1000 to 10000 nM; at GRK5, at most 50 nM.
The like results for `COc1ccc([C@@H](C)NC(=O)/C(C#N)=C/c2c[nH]c3ncc(-c4cccc(S(C)(=O)=O)c4)cc23)cc1OC` [Example 125] were, in that order, over 10000 nM and at most 50 nM.
Consider `COc1ccc([C@@H](C)NC(=O)/C(C#N)=C\c2c[nH]c3ncc(-c4ccc(C#N)cc4)cc23)cc1OC` [Example 140, (R,Z)-2-cyano-3-(5-(4-cyanophenyl)-1H-pyrrolo[2,3-b]pyridin-3-yl)-N-(1-(3,4-dimethoxyphenyl)ethyl)acrylamide], for which the IC50 at GRK2 was over 10000 nM; at GRK5, at most 50 nM.
In the case of `COc1ccc([C@@H](C)NC(=O)/C=C/c2c[nH]c3nccc(-c4cccc(NS(C)(=O)=O)c4)c23)cc1OC` [Example 231, (R,E)-N-(1-(3,4-dimethoxyphenyl)ethyl)-3-(4-(3-(methylsulfonamido)phenyl)-1H-pyrrolo[2,3-b]pyridin-3-yl)acrylamide], the IC50 is over 10000 nM on GRK2 and 100 to 500 nM on GRK5.
Turning to `COc1ccc([C@@H](C)NC(=O)/C(C#N)=C/c2c[nH]c3ncc(-c4cccc(NS(C)(=O)=O)c4)cc23)cc1OC` [Example 151, (R,E)-2-cyano-N-(1-(3,4-dimethoxyphenyl)ethyl)-3-(5-(3-(methylsulfonamido)phenyl)-1H-pyrrolo[2,3-b]pyridin-3-yl)acrylamide], the results for the IC50 on GRK2 and at GRK5 were over 10000 nM and at most 50 nM, respectively.
`COc1ccc([C@@H](C)NC(=O)/C(C#N)=C/c2c[nH]c3ncc(Br)cc23)cc1OC` [Example 80, (R,E)-3-(5-bromo-1H-pyrrolo[2,3-b]pyridin-3-yl)-2-cyano-N-(1-(3,4-dimethoxyphenyl)ethyl)acrylamide]: the IC50 at GRK2 was over 10000 nM; at GRK5, 50 to 100 nM.
For `COc1ccc([C@@H](C)NC(=O)/C(C#N)=C/c2c[nH]c3ncc(-c4cnn(CC(C)O)c4)cc23)cc1OC` (some centres unmarked) [Example 157], the IC50 is 1000 to 10000 nM at GRK2 and at most 50 nM on GRK5.
As to `COc1ccc([C@@H](C)NC(=O)/C=C/c2c[nH]c3nccc(-c4cnn(C)c4)c23)cc1OC` [Example 238, (R,E)-N-(1-(3,4-dimethoxyphenyl)ethyl)-3-(4-(1-methyl-1H-pyrazol-4-yl)-1H-pyrrolo[2,3-b]pyridin-3-yl)acrylamide], the results for the IC50 on GRK2 and on GRK5 were over 10000 nM and 100 to 500 nM, respectively.
For the compound `CN(C)CC(NC(=O)/C(C#N)=C/c1c[nH]c2ncccc12)c1ccccc1` (centres unmarked) [Example 50, (E)-2-cyano-N-(2-(dimethylamino)-1-phenylethyl)-3-(1H-pyrrolo[2,3-b]pyridin-3-yl)acrylamide], the IC50 on GRK2 and on GRK5 was 100 to 500 nM throughout.
For `COc1ccc([C@@H](C)NC(=O)/C=C/c2c[nH]c3nccc(-c4ccc(NS(C)(=O)=O)cc4)c23)cc1OC` [Example 226, (R,E)-N-(1-(3,4-dimethoxyphenyl)ethyl)-3-(4-(4-(methylsulfonamido)phenyl)-1H-pyrrolo[2,3-b]pyridin-3-yl)acrylamide], the IC50 at GRK2 was 1000 to 10000 nM; at GRK5, 50 to 100 nM.
In the same order, the values of `COc1ccc([C@@H](C)NC(=O)/C(C#N)=C/c2c[nH]c3ncc(-c4cccnc4)cc23)cc1OC` [Example 130] are over 10000 nM and at most 50 nM.
`O=C(/C=C/c1c[nH]c2ncc(Cl)cc12)NCc1ccccc1` [Example 6, (E)-N-benzyl-3-(5-chloro-1H-pyrrolo[2,3-b]pyridin-3-yl)acrylamide]: the IC50 at GRK2 lay in the range of 1000 to 10000 nM; on GRK5, 100 to 500 nM.
As to `N#C/C(=C\c1c[nH]c2ncccc12)C(=O)NCc1ccc(S(N)(=O)=O)cc1` [Example 21, (E)-2-cyano-3-(1H-pyrrolo[2,3-b]pyridin-3-yl)-N-(4-sulfamoylbenzyl)acrylamide], the IC50 is over 10000 nM at GRK2 and 1000 to 10000 nM at GRK5.
Take `COc1ccc([C@@H](C)NC(=O)/C(C#N)=C/c2c[nH]c3ncc(-c4cnn(CCN5CCOCC5)c4)cc23)cc1OC` [Example 160]: the IC50 was 1000 to 10000 nM at GRK2 and at most 50 nM on GRK5.
